Experimental data reported in patent US11439147B2, “3-pyridyl oxyaniline compound and use of same” (Sumitomo Chemical Company, Limited, priority 2016, dated 2022).

Assays:
Assay type in all cases: in vivo
[1] = system: Amaranthus retroflexus; experiment: Post-emergence treatment test in a farmland (pot, foliar spray); details: application rate 4 kg/ha; two-leaf stage, sprayed; nine days after spraying; visual, 11 stages 0 (no effect) to 10 (complete kill)
Protocol: Test Example 1: Post-emergence treatment test in a farmland
Nursery soil was put in a plastic pot measuring 8 cm in diameter and 6.5 cm in height, and in the pot, seeds of Amaranthus retroflexus were sown, and then covered with soil of about 0.5 cm thickness, and the plants were grown in a greenhouse. When the Amaranthus retroflexus plants were grown to two-leaf stage, a diluted solution containing any one of the present compound, the compound A, or the compound B was uniformly sprayed on the whole Amaranthus retroflexus plants so that the application rates of the chemicals would be values indicated in Table 1.
Here the diluted solution was prepared by dissolving the present compound, the compound A, or the compound B in dimethylformamide solution containing 2% of Tween 20 (polyoxyethylene sorbitan fatty acid ester) (manufactured by MP Biomedicals Inc.) and then diluting the solution with deionized water.
The Amaranthus retroflexus plants that were sprayed with the diluted solution containing the present compound, the compound A, or the compound B were grown in a greenhouse. Nine clays after spraying, the efficacy for controlling Amaranthus retroflexus plants was observed, thereby examining a herbicidal effect. Here the herbicidal effect was visually observed and evaluated by classifying the effect into 11 stages from 0 (no effect) to 10 (complete kill).

[2] = system: Lindernia procumbens; experiment: Herbicidal effect, pot test in greenhouse (paddy water treatment); details: twelve days after treatment, visual index 0 (no effect) to 100 (complete kill)
Description: (§1) Herbicidal effect against Echinochloa oryzicola and Lindernia procumbens (Pot test in greenhouse) Soil was put in a plastic pot (φ 5 cm×5.5 cm), and soil was puddled, and the plastic pot was allowed to stand for 2 days, Lindernia procumbens seeds were mixed with soil, and sown to the surface of puddled soil in the pot. On the same day, the sprouted seeds of Echinochloa oryzicola were sown into about 0.5 cm depth from the soil surface of the pot, and the submerged depth was adjusted to about 2 cm. Treatment solutions containing the present, compound, the compound A, or the compound B were prepared by dissolving the present compound, the compound A, or the compound B in acetone, followed by diluting the resulting solutions with distilled water. On the same day as the sowing of Echinochloa oryzicola and Lindernia procumbens, the treatment solution containing the present compound, the compound A, or the compound B was poured into paddy water in the pot so that the application rates of the chemicals would be values indicated in Table 2. Twelve days after the treatment, the herbicidal effect on weeds was visually observed by classifying the effect into 0 to 100 indices (0 (no effect) to 100 (complete kill)).

[3] = system: Echinochloa oryzicola; experiment: as above; details: twelve days after treatment, visual index 0 (no effect) to 100 (complete kill)
Description: as §1

[4] = system: Echinochloa oryzicola; experiment: Hydroponic test of Echinochloa oryzicola; details: ten days, visual index 0 (no effect) to 100 (complete kill)
Protocol: Test Example 3: Hydroponic Test of Echinochloa oryzicola
Two (2) mL of distilled water was poured into a plastic tube (2.5 cm in inside diameter×10 cm in height). To the distilled water was added a solution in which the present compound or the compound A was dissolved in dimethyl sulfoxide to prepare the treatment solutions so that, the treatment concentration thereof would be values indicated in table 3. Next, four grains of sprouted Echinochloa oryzicola seeds were put in each treatment solution. The tubes were covered with parafilm, and the seeds were grown under the condition that a cultivation at 25° C. under lightning for 16 hours and a successive cultivation at 25° C. under dark for 8 hours were repeated. Ten days after the addition of the Echinochloa oryzicola seeds, the herbicidal effect on Echinochloa oryzicola was visually observed by classifying the effect into 0 to 100 indices (0 (no effect) to 100 (complete kill)).

[5] = system: Arabidopsis thaliana; experiment: Inhibitory activity on emergence of Arabidopsis thaliana; details: ten days after sowing, visual index 0: no effect to 100: no emergence
Protocol: Test Example 4: Inhibitory Activity on Emergence of Arabiclopsis thaliana Each well of 24 well microtiter plates was matted with a filter paper, and to the filter paper was added 150 μL of distilled water. To the distilled water was added a solution in which the present compound, the compound A, or the compound B was dissolved in dimethyl sulfoxide so that the concentration of each of the chemicals would be values indicated in Table 4. Next, seeds of Arabidopsis thaliana were sown into each well and grown under the condition that a cultivation at 25° C. under lighting for 16 hours and a successive cultivation at 25° C. under dark for 8 hours were repeated. Ten days after sowing, the inhibitory activity on emergence of Arabidopsis thaliana was visually evaluated by classifying the activity into 0 to 100 indices (0: no effect to 100: no emergence).

[6] = application rate 50 g/a into paddy water
[7] = application rate 100 g/a into paddy water
[8] = treatment concentration 125 ppm
[9] = treatment concentration 250 ppm
[10] = treatment concentration 500 ppm
[11] = treatment concentration 1000 ppm

| SMILES | Herbicidal Effect [1] | Herbicidal Effect Lindernia procumbens [2, 6] | Herbicidal Effect Lindernia procumbens [2, 7] | Herbicidal Effect Echinochloa oryzicola [3, 6] | Herbicidal Effect Echinochloa oryzicola [3, 7] | Herbicidal Effect [4, 8] | Herbicidal Effect [4, 9] | Herbicidal Effect [4, 10] | Inhibitory Activity on Emergence [5, 10] | Inhibitory Activity on Emergence [5, 11] |
| --- | --- | --- | --- | --- | --- | --- | --- | --- | --- | --- |
| CCOC(=O)COc1ncccc1Oc1cc(N)c(F)cc1Cl [Compound A, 4-chloro-2-fluoro-5-{2-(ethoxycarbonyl)methoxy-3-pyridyloxy}aniline] | 1 | 0 | 0 | 0 | 10 | 0 | 0 | 0 | 0 | 0 |
| CCOC(=O)COc1ncccc1Oc1cc(NC(=O)CC(=O)C(F)(F)F)c(F)cc1Cl [Compound B] | 3 | 0 | 0 | 0 | 0 |  |  |  | 0 | 0 |
| CCOC(=O)COc1ncccc1Oc1cc(NC(=O)C=C(Nc2cc(Oc3cccnc3OCC(=O)OCC)c(Cl)cc2F)C(F)(F)F)c(F)cc1Cl [Present compound] | 8 | 50 | 60 | 100 | 100 | 100 | 100 | 100 | 100 | 100 |
